Data on six compounds can be found in patent US4693998A, “Novel compounds of the muramyl peptide” (Agence Nationale de Valorisation de la Rechersche, priority 1978, dated 1987).

Data set [1] concerns bovine serum albumin (BSA) antibodies. Nature of the data set: Adjuvant character in the aqueous phase: anti-albumin antibodies by passive hemagglutination. Type of data set: in vivo, Swiss mice. Conditions: for Antibody Titer Secondary Response / Antibody Titer Primary Response: Swiss mice, 100 μg s.c. with 0.5 mg BSA in isotonic saline; for Antibody Titer Secondary Response: after booster 0.1 mg BSA at 30 days; for Antibody Titer Primary Response: maximum serum dilution agglutinating; for level of antibodies formed: administered in isotonic saline solution. The procedure:
In this series of trials of which the results are indicated below, the influence of the active principle according to the invention on the level of anti-albumin antibodies under the following conditions, were studied.
Groups of 8 Swiss mice aged two months received, by sub-cutaneous injection, 0.5 mg of antigen constituted by bovine serum albumin (BSA) with or without the tested substance in isotonic saline solution. This high dose of antigen, because it is situated at the limit of the paralysing dose with respect to the immune response, results for this reason, in a weak or nil response to the antigen alone in the controls; it therefore constitutes a severe criterion for establishing the activity of an adjuvant substance. Thirty days later, the mice received, by the same route of administration, a booster containing 0.1 mg of the same antigen.
By way of comparison, the adjuvant effect was studied simultaneously of 2-(2-acetamido-2-deoxy-3-O-D-glucopyranosyl)-D-propionyl-L-alanyl-D-isoglutamine (MDP) known for its adjuvant properties.
The antibody level is determined by passive hemagglutination using sheep's red blood cells treated with formalin and covered with the antigen studied according to the method described by A. A. HIRATA and M. W. BRANDISS (J. Immunol., 100, 641-648, 1968). Samples were taken respectively after the first injection of antigen and after injection of the booster to determine the primary and secondary responses.
The antibody titers express the maximum serum dilution agglutinating a given amount of sheep's red blood cells.

For data set [2], the system named is ovalbumin specific antibodies / delayed hypersensitivity. Nature of the data set: Adjuvant character in the presence of an oily phase (FIA): ovalbumin antibodies and delayed hypersensitivity. The following applies: for Serum Antibodies / Cutaneous test (diameter in mm): guinea pigs; for Serum Antibodies: 0.1 mg in FIA emulsion with 1 mg ovalbumin, intradermal, day 21, nitrogen precipitatable by the antigen; for Cutaneous test (diameter in mm): 0.1 mg in FIA emulsion, 0.01 mg ovalbumin intradermal at day 18, read 48 hours later; for delayed hypersensitivity reaction / level of antibodies formed: administered in an oily emulsion. Type of data set: in vivo, Hartley guinea pigs. As to the method:
In these tests, the growth of the specific antibody level of a given antigen is followed when the latter is injected, with or without the adjuvant compound according to the invention, in a water in oil emulsion.
The tests were carried out on batches of 6 female Hartley guinea pigs of 350 g. The administration was done by intradermal injection into the plantar pad of each of the rear paws. The ovalbumin (constituting the antigen) at the dose of 1 mg is prepared in 0.1 ml of a saline isotonic solution emulsion, in an oily phase constituted by the Freund incomplete adjuvant (FIA). The compound according to the invention is administered at the dose of 0.1 mg added in the emulsion containing the FIA.
As previously, by way of comparison, a test was carried out with MDP in place of the product according to the invention.
Eighteen days after this immunization, possible reactions are sought of delayed hypersensitivity to the antigen by injecting by the intradermal route 0.01 mg of ovalbumin into the side of the animals, and there was observed, 48 hours later, the reaction at the point of injection. The diameter in millimeters of the reaction thus-caused was measured.
Twenty-one days after the injection, the animals were bled. In the serum collected, the content is measured of specific antibodies of ovalbumin by precipitation of the antibody-antigen complex in the equivalence zone. The amount of protein nitrogen contained in this precipitate was estimated by the method of Folin. These values express the amount, in micrograms, of nitrogen precipitatable by the antigen, per […] of serum.

A short description of data set [3]: Pyrogenicity: maximum temperature variation in rabbits during three hours after administration. Type of data set: in vivo, rabbit. The following applies: three hours following administration. As to the method: In the course of tests on rabbits, the maximum temperature variations during the three hours following administration were followed. For doses as high as 5 mg/kg or more of product, no significant variation in temperature is observed. Thus the average rise in temperature for administration to rabbits, for different esters of Mur-NAc-L-Ala-D-Gln is: […]

For data set [4], the system named is total blood. The data set is described as follows: Influence on coagulation mechanisms: recalcification coagulation time after incubation with total blood. Type of data set: cell-based, rabbit. Conditions: for coagulation time: 100 μg per 1 ml total blood; for effect on coagulation: contrary to LPS. An excerpt: It is known, from recent studies, that compounds having adjuvant properties like LPS can have side effects. Thus it has been observed in the rabbits that the administration of LPS has a tendency to shorten the coagulation time. The reasons for this phenomena are not fully known; nonetheless, it has seemed useful to determine the effect of the products according to the invention on coagulation under the same conditions.
For these tests, the test described by LERNER et col. in Thrombosis Research, Vol. 11, pp. 253-261, 1977, "Endotoxin induced disseminated intravascular clotting: evidence that it is mediated by neutrophile production of tissue factor", was used.
The total blood was divided into two portions of which one was centrifuged to obtain platelet-free plasma (PFP).
1 ml of total blood was incubated in a plastic tube in the presence of 100 μg of the product to be tested.
Tubes were also prepared containing 0.1 ml of PFP to which every hour, from 0 to 5 hours, were added 0.1 ml of incubation mixture, then these were recalcified by 0.1 ml of 0.025M calcium chloride.
The coagulation time was noted and the pro-coagulating activity was deduced therefrom as a function of the shortening of the coagulation time with respect to the control, physiological water. The result was compared with that of a highly pro-coagulant reference standard, the LPS.
The coagulation times are expressed in seconds.

Data set [5] has as its system Klebsiella pneumoniae. The data set is described as follows: Anti-infection activity with respect to Klebsiella (mouse survival). Conditions: for anti-infectious activity: higher percentage of survivors than control group. Type of data set: in vivo. The text has this:
The testing procedure is described in the article CHEDID L. et col., Proc. Natl. Acad. Sci. USA 1977, 74: 2089.
It was shown that a dose of 1 to 2.10^4 Klebsiella pneumoniae, injected by the intramuscular route to mice, results in the progressive death of a considerable part, if not of the whole, of the animals in the week following inoculation. After eight days, the survival of the remaining animals is finally achieved.
The survival of groups of mice inoculated under the above-indicated conditions and treated by means of the products according to the invention, was followed.
For these tests, hybrid mice (C571B1/6×AKR)F1 raised at the INSTITUT PASTEUR were used, there mice being raised from strains coming from the C.N.R.S. breeding station at ORLEANS.
Infection by Klebsiella pneumoniae, capsular type 2, biotype d, strain was effected with a 16 hour culture in medium for pneumococci (No. 53515, INSTITUT PASTEUR) was effected. The infecting dose was 2.10^4 Klebsiella; it was administered by the intramuscular route.
The administration of the tested product is effected by the intravenous route in 0.2 ml of apyrogenic physiological solution, the controls receiving the solution alone. It is carried out 24 hours before the inoculation.

The conditions of data set [6]: cited from earlier work.
For data set [7] the following is noted: in vivo; cited from earlier work.

As to `CC(=O)N[C@@H]1[C@@H](O[C@H](C)C(=O)N[C@@H](C)C(=O)N[C@H](CCC(=O)O)C(N)=O)[C@H](O)[C@@H](CO)O[C@H]1O` [MDP, 2-(2-acetamido-2-deoxy-3-O-D-glucopyranosyl)-D-propionyl-L-alanyl-D-isoglutamine, reference compound], in data set [1], the “Antibody Titer Secondary Response” value amounted to 300 ± 100 and the “Antibody Titer Primary Response” value was 50. For the same compound, in data set [2], the “Serum Antibodies” value is recorded as 5,000 μg/ml and the “Cutaneous test (diameter in mm)” value is 15 mm.

Take `COC(=O)[C@@H](CCC(N)=O)NC(=O)[C@H](C)NC(=O)[C@@H](C)O[C@H]1[C@H](O)[C@@H](CO)OC(O)[C@@H]1NC(C)=O` (stereo partly drawn) [Mur--NAc--L-Ala--D-Glu(NH2)--OCH3, Methyl ester of N-acetyl-muramyl-L-alanyl-D-glutamine]: in data set [3] (at 5 mg/kg), the “average rise in temperature” value was 0.53 °C. Moreover, in data set [1], the “Antibody Titer Secondary Response” value amounted to 500 ± 150, the “Antibody Titer Primary Response” value is reported as 100 and the “level of antibodies formed” value was “considerable increase in the level of antibodies formed”. In addition, in data set [2], the “delayed hypersensitivity reaction” value is reported as “induces a delayed hypersensitivity reaction”, the “level of antibodies formed” value is “very considerable increase in the level of antibodies formed”, the “Serum Antibodies” value was 6,000 μg/ml and the “Cutaneous test (diameter in mm)” value stood at 17 mm. For the same compound, the coagulation time in data set [4] (incubation 0 h) was determined as 125 s. Further, the coagulation time in data set [4] (incubation 2 h) amounted to 118 s. Further, the coagulation time in data set [4] (incubation 3 h) stood at 109 s. Moreover, the coagulation time in data set [4] (incubation 4 h) came out at 110 s. Moreover, the coagulation time in data set [4] (incubation 5 h) worked out at 104 s. For the same compound, the “effect on coagulation” value in data set [4] was “do not accelerate coagulation”.

With `CCCCCCCCCCOC(=O)C(CCC(N)=O)NC(=O)C(C)NC(=O)C(C)OC1C(O)C(CO)OC(O)C1NC(C)=O` [decyl ester, n-decyl ester of N-acetyl-muramyl-L-alanyl-D-glutamine], the “average rise in temperature” value in data set [3] (at 10 mg/kg) turned out to be 0.23 °C. In addition, the “anti-infectious activity” value in data set [5] is reported as “anti-infectious activity”.

`CC(=O)N[C@H]1C(O)O[C@H](CO)[C@@H](O)[C@@H]1O[C@H](C)C(=O)N[C@@H](C)C(=O)N[C@H](CCC(N)=O)C(N)=O` (stereo partly drawn) [diamide of N-acetyl-muramyl-L-alanyl-D-glutamic acid]: the “adjuvant activity compared with N-acetyl-muramyl-L-alanyl-D-isoglutamine” value in data set [6] (in vivo) is “less active”. In data set [7], the “pyrogenicity” value was “very low level of pyrogenicity”.

As to `COC(=O)CC[C@@H](NC(=O)[C@H](C)NC(=O)C(C)O[C@H]1[C@H](O)[C@@H](CO)O[C@H](O)[C@@H]1NC(C)=O)C(=O)OC` (stereo partly drawn) [dimethyl ester of N-acetyl-muramyl-L-alanyl-D-glutamic acid], in data set [6] (in oil, ADAM et coll. 1976), the “adjuvant activity in oil compared with γ-methylester of N-acetyl-muramyl-L-alanyl-D-isoglutamine” value is reported as “lesser adjuvant activity in oil”.

As to “n-butyl ester of N-acetyl-muramyl-L-alanyl-D-glutamine [Mur--NAc--L-Ala--D-Glu(NH2)--OC4 H9]”, the “average rise in temperature” value in data set [3] (at 10 mg/kg) amounted to 0.30 °C. Moreover, in data set [1], the “Antibody Titer Secondary Response” value came to 600 ± 200, the “Antibody Titer Primary Response” value stood at 12 and the “level of antibodies formed” value is reported as “considerable increase in the level of antibodies formed”. Moreover, in data set [2], the “delayed hypersensitivity reaction” value is “induces a delayed hypersensitivity reaction”, the “level of antibodies formed” value is given as “very considerable increase in the level of antibodies formed”, the “Serum Antibodies” value is listed as 2,000 μg/ml and the “Cutaneous test (diameter in mm)” value is on record as 8 mm. The “anti-infectious activity” value in data set [5] is “anti-infectious activity”. Moreover, the “% Protection” value in data set [5] (mice, 2.10^4 Klebsiella i.m., product i.v. 24 hours before inoculation) amounted to 63%. Further, in data set [5] (mice, 2.10^4 Klebsiella i.m., product i.v. 24 hours before inoculation, day 3), the “% Survival D3” value worked out at 92%. Further, the “% Survival D5” value in data set [5] (mice, 2.10^4 Klebsiella i.m., product i.v. 24 hours before inoculation, day 5) amounted to 75%. In data set [5] (mice, 2.10^4 Klebsiella i.m., product i.v. 24 hours before inoculation, day 10), the “% Survival D10” value was 75%. Besides, the coagulation time in data set [4] (incubation 0 h) was 129 s. Also, the coagulation time in data set [4] (incubation 2 h) is 120 s. The coagulation time in data set [4] (incubation 3 h) is 122 s. For the same compound, the coagulation time in data set [4] (incubation 4 h) was 114 s. For the same compound, the coagulation time in data set [4] (incubation 5 h) was 108 s. Further, the “effect on coagulation” value in data set [4] is “do not accelerate coagulation”.
